Reference: patent US8134015B2, “Compound inhibiting in vivo phosphorous transport and medicine containing the same” (Kyowa Hakko Kirin Co., Ltd., priority 2003, dated 2012)

target: T1, rat NaPi-2b (Rattus norvegicus, UniProt Q9JJ09); assay: Sodium-dependent phosphate uptake of Xenopus oocytes which expressed NaPi-2b (32P); type: cell-based; details: Xenopus oocytes expressing rat NaPi-2b, 32P radioactive phosphorus; read-out: IC50 (phosphate uptake inhibitory activity)
T1 construct: expressed in transfected cells; host or cells: Xenopus oocytes injected with cRNA
T1 sequence (Q9JJ09 1-695): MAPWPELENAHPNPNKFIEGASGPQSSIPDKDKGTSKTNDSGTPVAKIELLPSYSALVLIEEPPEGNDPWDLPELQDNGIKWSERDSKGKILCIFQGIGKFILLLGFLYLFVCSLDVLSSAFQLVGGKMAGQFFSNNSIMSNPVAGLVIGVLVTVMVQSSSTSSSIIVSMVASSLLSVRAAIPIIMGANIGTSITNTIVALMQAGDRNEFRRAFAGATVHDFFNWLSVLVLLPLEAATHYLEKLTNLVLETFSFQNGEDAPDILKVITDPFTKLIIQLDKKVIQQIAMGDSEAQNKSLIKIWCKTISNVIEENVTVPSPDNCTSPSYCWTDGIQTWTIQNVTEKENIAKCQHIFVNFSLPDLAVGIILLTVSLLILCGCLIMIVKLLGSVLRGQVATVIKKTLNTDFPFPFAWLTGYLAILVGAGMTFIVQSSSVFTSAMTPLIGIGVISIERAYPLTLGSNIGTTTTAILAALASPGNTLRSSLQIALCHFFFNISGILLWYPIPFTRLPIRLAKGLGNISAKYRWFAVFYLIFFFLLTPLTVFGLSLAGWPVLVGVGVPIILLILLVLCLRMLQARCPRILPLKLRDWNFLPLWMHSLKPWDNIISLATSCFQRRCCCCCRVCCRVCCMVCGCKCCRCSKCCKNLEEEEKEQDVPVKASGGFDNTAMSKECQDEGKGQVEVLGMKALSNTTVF
In short: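 Rat small-intestine NaPi-2b cRNA injected into Xenopus oocytes, expressed for 2 days. Sodium-dependent phosphate uptake measured with 32P; % inhibition at 300 and 100 μM taken from the same inhibition curve.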

| IC50 [µM] | SMILES |
| --- | --- |
| 0.62 | COc1ccc(/C=N/NC(=O)c2cc(Cl)ccc2NC(=O)c2ccc(OC)c(OC)c2)cc1Br [Compound 98, N-[2-(3-Bromo-4-methoxy-benzylidene-hydrazinocarbonyl)-4-chloro-phenyl]-3,4-dimethoxy-benzamide] |
| 3.03 | COc1cc(OC)cc(C(=O)Nc2ccccc2C(=O)N/N=C/c2ccc(OC)c(Br)c2)c1 [Compound 99, N-[2-(3-Bromo-4-methoxy-benzylidene-hydrazinocarbonyl)-phenyl]-3,5-dimethoxy-benzamide] |
| 0.64 | COc1ccc(C(=O)Nc2ccccc2C(=O)N/N=C/c2ccc(OC)c(Br)c2)cc1 [Compound 100, N-[2-(3-Bromo-4-methoxy-benzylidene-hydrazinocarbonyl)-phenyl]-4-methoxy-benzamide] |
| 0.75 | COc1ccc(/C=N/NC(=O)c2ccccc2NC(=O)c2cccc(F)c2)cc1Br [Compound 101, N-[2-(3-Bromo-4-methoxy-benzylidene-hydrazinocarbonyl)-phenyl]-3-fluoro-benzamide] |
| 5.58 | COc1ccc(/C=N/NC(=O)c2ccccc2NC(=O)c2ccc(F)cc2)cc1Br [Compound 102, N-[2-(3-Bromo-4-methoxy-benzylidene-hydrazinocarbonyl)-phenyl]-4-fluoro-benzamide] |
| 5.73 | COc1ccc(C(=O)Nc2ccccc2C(=O)N/N=C/c2cccc([N+](=O)[O-])c2)cc1OC [Compound 103, 3,4-Dimethoxy-N-[2-(3-nitro-benzylidene-hydrazinocarbonyl)-phenyl]-benzamide] |
| 11.3 | COc1ccc(C(=O)Nc2ccccc2C(=O)N/N=C/c2ccc(N(C)C)cc2)cc1OC [Compound 104, N-[2-(4-Dimethylamino-benzylidene-hydrazinocarbonyl)-phenyl]-3,4-dimethoxy-benzamide] |
| 7.29 | O=C(Nc1ccc(Br)cc1C(=O)N/N=C/c1cccc(F)c1)c1ccc(F)cc1 [Compound 105, N-[4-Bromo-2-(3-fluoro-benzylidene-hydrazinocarbonyl)-phenyl]-4-fluoro-benzamide] |
| 5.11 | O=C(Nc1ccc(Br)cc1C(=O)N/N=C/c1ccc(F)cc1)c1ccc(F)cc1 [Compound 106, N-[4-Bromo-2-(4-fluoro-benzylidene-hydrazinocarbonyl)-phenyl]-4-fluoro-benzamide] |
| 1.08 | O=C(Nc1ccc(Br)cc1C(=O)N/N=C/c1cccc(Cl)c1)c1ccc(F)cc1 [Compound 107, N-[4-Bromo-2-(3-chloro-benzylidene-hydrazinocarbonyl)-phenyl]-4-fluoro-benzamide] |
| 3.83 | O=C(Nc1ccc(Br)cc1C(=O)N/N=C/c1ccc(Cl)cc1)c1ccc(F)cc1 [Compound 108, N-[4-Bromo-2-(4-chloro-benzylidene-hydrazinocarbonyl)-phenyl]-4-fluoro-benzamide] |
| 6.18 | O=C(Nc1ccc(Br)cc1C(=O)N/N=C/c1cccc(O)c1)c1ccc(F)cc1 [Compound 109, N-[4-Bromo-2-(3-hydroxy-benzylidene-hydrazinocarbonyl)-phenyl]-4-fluoro-benzamide] |
| 7.7 | COc1ccc(C(=O)Nc2ccc(Br)cc2C(=O)N/N=C/c2cccnc2)cc1OC [Compound 110, N-[4-Bromo-2-(pyridin-3-ylmethylene-hydrazinocarbonyl)-phenyl]-3,4-dimethoxy-benzamide] |
| 9.12 | COc1ccc(C(=O)Nc2ccc(Cl)cc2C(=O)N/N=C/c2cccnc2)cc1OC [Compound 111, N-[4-Chloro-2-(pyridin-3-ylmethylene-hydrazinocarbonyl)-phenyl]-3,4-dimethoxy-benzamide] |
| 42 | COc1ccc(C(=O)Nc2ccccc2C(=O)N/N=C/c2cccnc2)cc1 [Compound 112, 4-Methoxy-N-[2-(pyridin-3-ylmethylene-hydrazinocarbonyl)-phenyl]-benzamide] |
| 17.9 | O=C(Nc1ccccc1C(=O)N/N=C/c1cccnc1)c1ccc(F)cc1 [Compound 113, 4-Fluoro-N-[2-(pyridin-3-ylmethylene-hydrazinocarbonyl)-phenyl]-benzamide] |
| 2.55 | COc1cc(OC)cc(C(=O)Nc2ccc(Br)cc2C(=O)N/N=C/c2cccc(F)c2)c1 [Compound 114, N-[4-Bromo-2-(3-fluoro-benzylidene-hydrazinocarbonyl)-phenyl]-3,5-dimethoxy-benzamide] |
| 5.48 | COc1cc(OC)cc(C(=O)Nc2ccc(Br)cc2C(=O)N/N=C/c2ccc(F)cc2)c1 [Compound 115, N-[4-Bromo-2-(4-fluoro-benzylidene-hydrazinocarbonyl)-phenyl]-3,5-dimethoxy-benzamide] |
| 7.01 | COc1cc(OC)cc(C(=O)Nc2ccc(Br)cc2C(=O)N/N=C/c2cccc(Cl)c2)c1 [Compound 116, N-[4-Bromo-2-(3-chloro-benzylidene-hydrazinocarbonyl)-phenyl]-3,5-dimethoxy-benzamide] |

| IC50 [µM] | SMILES |
| --- | --- |
| 0.58 | COc1cc(OC)cc(C(=O)Nc2ccc(Br)cc2C(=O)N/N=C/c2ccc(Cl)cc2)c1 [Compound 117, N-[4-Bromo-2-(4-chloro-benzylidene-hydrazinocarbonyl)-phenyl]-3,5-dimethoxy-benzamide] |
| 6.07 | COc1cc(OC)cc(C(=O)Nc2ccc(Br)cc2C(=O)NN=Cc2cccc(C)c2)c1 [Compound 118, N-[4-Bromo-2-(3-methyl-benzylidene-hydrazinocarbonyl)-phenyl]-3,5-dimethoxy-benzamide] |
| 0.74 | COc1cc(OC)cc(C(=O)Nc2ccc(Br)cc2C(=O)N/N=C/c2ccc(C)cc2)c1 [Compound 119, N-[4-Bromo-2-(4-methyl-benzylidene-hydrazinocarbonyl)-phenyl]-3,5-dimethoxy-benzamide] |
| 2.55 | O=C(Nc1ccccc1C(=O)N/N=C/c1cccc(F)c1)c1cccc(OC(F)(F)F)c1 [Compound 120] |
| 4.06 | O=C(Nc1ccccc1C(=O)N/N=C/c1ccc(F)cc1)c1cccc(OC(F)(F)F)c1 [Compound 121] |
| < 3 | O=C(Nc1ccccc1C(=O)N/N=C/c1cccc(Cl)c1)c1cccc(OC(F)(F)F)c1 [Compound 122] |
| 3.77 | O=C(Nc1ccccc1C(=O)N/N=C/c1ccc(Cl)cc1)c1cccc(OC(F)(F)F)c1 [Compound 123] |
| 3.15 | Cc1ccc(/C=N/NC(=O)c2ccccc2NC(=O)c2cccc(OC(F)(F)F)c2)cc1 [Compound 124] |
| 136 | COc1ccc(C(=O)Nc2ccc(OCCCN(C)C)cc2C(=O)N/N=C/c2ccc(F)cc2)cc1OC [Compound 125, N-[4-(3-Dimethylamino-propoxy)-2-(4-fluoro-benzylidene-hydrazinocarbonyl)-phenyl]-3,4-dimethoxy-benzamide] |
| 6.43 | COc1ccc(/C=N/NC(=O)c2cc(Cl)ccc2NC(=O)c2ccc(OC)c(OC)c2)cc1OC [Compound 126, N-[4-Chloro-2-(3,4-dimethoxy-benzylidene-hydrazinocarbonyl)-phenyl]-3,4-dimethoxy-benzamide] |
| 11.6 | COc1ccc(/C=N/NC(=O)c2cc(Br)ccc2NC(=O)c2ccc(OC)c(OC)c2)cc1OC [Compound 127, N-[4-Bromo-2-(3,4-dimethoxy-benzylidene-hydrazinocarbonyl)-phenyl]-3,4-dimethoxy-benzamide] |
| 11.6 | COc1cc(OC)cc(C(=O)Nc2ccc(Br)cc2C(=O)N/N=C/c2ccc(OC)c(OC)c2)c1 [Compound 128, N-[4-Bromo-2-(3,4-dimethoxy-benzylidene-hydrazinocarbonyl)-phenyl]-3,5-dimethoxy-benzamide] |
| 13.7 | O=C(Nc1ccccc1C(=O)N/N=C/c1cccc(F)c1)c1cccnc1 [Compound 129, N-[2-(3-Fluoro-benzylidene-hydrazinocarbonyl)-phenyl]-nicotinamide] |
| 0.75 | Cc1ccc(/C=N/NC(=O)c2ccccc2NC(=O)c2cccnc2)cc1 [Compound 132, N-[2-(4-Methyl-benzylidene-hydrazinocarbonyl)-phenyl]-nicotinamide] |
| 0.88 | Cc1ccc(/C=N/NC(=O)c2ccccc2NC(=O)c2cccnc2)cc1C [Compound 133, N-[2-(3,4-Dimethyl-benzylidene-hydrazinocarbonyl)-phenyl]-nicotinamide] |
| 7.82 | O=C(Nc1ccccc1C(=O)N/N=C/c1cccc(F)c1)c1ccncc1 [Compound 134, N-[2-(3-Fluoro-benzylidene-hydrazinocarbonyl)-phenyl]-isonicotinamide] |
| 3.74 | O=C(Nc1ccccc1C(=O)N/N=C/c1ccc(F)cc1)c1ccncc1 [Compound 135, N-[2-(4-Fluoro-benzylidene-hydrazinocarbonyl)-phenyl]-isonicotinamide] |
| 4.52 | Cc1cccc(/C=N/NC(=O)c2ccccc2NC(=O)c2ccncc2)c1 [Compound 136, N-[2-(3-Methyl-benzylidene-hydrazinocarbonyl)-phenyl]-isonicotinamide] |

same assay, conditions: phosphate uptake, oocytes expressing rat NaPi-2b; 300 μM, determined from inhibition curve

| inhibition at 300 µM [%] | SMILES |
| --- | --- |
| 32.4 | Cc1cccc(/C=N/NC(=O)c2ccccc2NC(=O)c2cccnc2)c1 [Compound 131, N-[2-(3-Methyl-benzylidene-hydrazinocarbonyl)-phenyl]-nicotinamide] |
